The results in this text go back to publication PMC5564600 (Oncotarget, 2017).

Assay in all cases: biochemical
Holding throughout (format): binding

The target of assay [1] is T1, panel of 442 kinases (Homo sapiens, UniProt Q13470).
T1 construct: purchased Ambit Biosciences (scanMAXX KINOMEscan)
T1 sequence (Q13470 1-666): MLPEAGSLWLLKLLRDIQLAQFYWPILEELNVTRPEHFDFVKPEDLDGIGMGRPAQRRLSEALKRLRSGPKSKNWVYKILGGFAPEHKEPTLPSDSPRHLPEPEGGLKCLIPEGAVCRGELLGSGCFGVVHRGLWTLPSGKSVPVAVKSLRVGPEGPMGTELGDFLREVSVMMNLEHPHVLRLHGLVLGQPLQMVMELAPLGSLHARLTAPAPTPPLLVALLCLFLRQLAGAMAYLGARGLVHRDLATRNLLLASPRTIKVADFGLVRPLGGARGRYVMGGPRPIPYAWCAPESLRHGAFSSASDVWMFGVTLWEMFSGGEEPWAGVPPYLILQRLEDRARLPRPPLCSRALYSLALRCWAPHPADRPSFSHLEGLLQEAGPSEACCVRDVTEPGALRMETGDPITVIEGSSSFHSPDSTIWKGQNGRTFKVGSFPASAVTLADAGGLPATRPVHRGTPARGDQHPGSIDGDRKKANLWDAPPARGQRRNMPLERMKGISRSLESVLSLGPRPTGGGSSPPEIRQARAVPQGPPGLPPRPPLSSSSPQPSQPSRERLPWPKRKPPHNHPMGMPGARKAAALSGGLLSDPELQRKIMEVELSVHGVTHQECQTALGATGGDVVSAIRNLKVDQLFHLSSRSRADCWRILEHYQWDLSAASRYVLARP
Particulars: kinase TNK1; for remaining activity at 1 µM: read-out: TNK1 (% of control at 1 µM).

The target in assay [2] is T2, panel of 442 kinases (Homo sapiens, UniProt O94768).
T2 construct: purchased Ambit Biosciences (scanMAXX KINOMEscan)
T2 sequence (O94768 1-372): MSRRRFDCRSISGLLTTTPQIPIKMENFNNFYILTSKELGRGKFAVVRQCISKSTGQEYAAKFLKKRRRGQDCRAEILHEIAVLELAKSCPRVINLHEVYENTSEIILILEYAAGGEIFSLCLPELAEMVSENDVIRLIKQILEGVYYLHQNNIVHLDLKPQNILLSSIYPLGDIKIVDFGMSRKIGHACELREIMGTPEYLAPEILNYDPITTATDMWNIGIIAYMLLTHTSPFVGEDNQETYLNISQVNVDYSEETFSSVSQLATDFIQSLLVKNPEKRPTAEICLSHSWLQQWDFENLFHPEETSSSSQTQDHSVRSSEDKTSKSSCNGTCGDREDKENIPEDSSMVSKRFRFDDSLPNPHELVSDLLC
To be noted: DRAK2; for remaining activity at 1 µM: read-out: % of control at 1 µM.

For assay [3], the target named is T3, panel of 442 kinases (Homo sapiens, UniProt O75385).
T3 construct: purchased Ambit Biosciences (scanMAXX KINOMEscan)
T3 sequence (O75385 1-1050): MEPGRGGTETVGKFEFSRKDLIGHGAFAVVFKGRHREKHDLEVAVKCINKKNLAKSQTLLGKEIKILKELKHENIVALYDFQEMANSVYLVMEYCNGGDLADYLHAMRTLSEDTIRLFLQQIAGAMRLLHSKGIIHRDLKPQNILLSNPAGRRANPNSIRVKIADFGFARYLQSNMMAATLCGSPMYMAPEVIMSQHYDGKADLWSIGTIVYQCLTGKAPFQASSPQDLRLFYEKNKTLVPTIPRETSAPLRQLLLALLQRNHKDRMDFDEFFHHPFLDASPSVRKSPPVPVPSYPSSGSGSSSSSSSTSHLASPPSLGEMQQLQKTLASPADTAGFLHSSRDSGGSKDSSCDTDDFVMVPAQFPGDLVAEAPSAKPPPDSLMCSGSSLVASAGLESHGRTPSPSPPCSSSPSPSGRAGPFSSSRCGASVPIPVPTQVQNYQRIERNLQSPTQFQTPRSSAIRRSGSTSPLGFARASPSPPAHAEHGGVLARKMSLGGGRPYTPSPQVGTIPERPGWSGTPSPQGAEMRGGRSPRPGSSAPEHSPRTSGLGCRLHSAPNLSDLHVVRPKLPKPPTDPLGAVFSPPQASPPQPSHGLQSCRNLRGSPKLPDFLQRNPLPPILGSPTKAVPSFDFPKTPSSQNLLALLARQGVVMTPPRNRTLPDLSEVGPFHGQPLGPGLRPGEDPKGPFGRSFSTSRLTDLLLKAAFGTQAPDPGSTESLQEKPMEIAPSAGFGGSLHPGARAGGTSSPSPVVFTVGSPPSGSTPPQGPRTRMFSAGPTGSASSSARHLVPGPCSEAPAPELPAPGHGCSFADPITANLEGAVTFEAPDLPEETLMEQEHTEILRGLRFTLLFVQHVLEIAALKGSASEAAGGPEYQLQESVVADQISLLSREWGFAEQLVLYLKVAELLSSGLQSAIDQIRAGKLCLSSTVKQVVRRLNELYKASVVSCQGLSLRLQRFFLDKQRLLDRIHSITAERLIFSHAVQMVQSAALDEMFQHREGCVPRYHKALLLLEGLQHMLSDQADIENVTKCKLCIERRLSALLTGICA
Particulars: kinase ULK1; for remaining activity at 1 µM: read-out: ULK1 (% of control at 1 µM).

In assay [4] the target is T4, panel of 442 kinases (Homo sapiens, UniProt P00533, T790M).
T4 construct: purchased Ambit Biosciences (scanMAXX KINOMEscan)
Particulars: EGFR(T790M); for remaining activity at 1 µM: read-out: % of control at 1 µM.

Assay [5] has as its target T5, panel of 442 kinases (Homo sapiens, UniProt P49674).
T5 construct: purchased Ambit Biosciences (scanMAXX KINOMEscan)
To be noted: CSNK1E; for remaining activity at 1 µM: read-out: % of control at 1 µM.

Assay [6] addresses T6, panel of 442 kinases (Homo sapiens, UniProt Q00526).
T6 construct: purchased Ambit Biosciences (scanMAXX KINOMEscan)
Particulars: CDK3; for remaining activity at 1 µM: read-out: % of control at 1 µM.

For assay [7], the target named is T7, panel of 442 kinases (Homo sapiens, UniProt P00519, F317L).
T7 construct: purchased Ambit Biosciences (scanMAXX KINOMEscan)
Particulars: for remaining activity at 1 µM: read-out: % of control at 1 µM; for remaining activity at 10 µM: read-out: % of control at 10 µM.

The mark [8] stands for this setting: 10 µM, read-out: % of control at 10 µM.

Read-outs that look alike come from different tables or passages of the source.

T5 sequence (P49674 whole entry): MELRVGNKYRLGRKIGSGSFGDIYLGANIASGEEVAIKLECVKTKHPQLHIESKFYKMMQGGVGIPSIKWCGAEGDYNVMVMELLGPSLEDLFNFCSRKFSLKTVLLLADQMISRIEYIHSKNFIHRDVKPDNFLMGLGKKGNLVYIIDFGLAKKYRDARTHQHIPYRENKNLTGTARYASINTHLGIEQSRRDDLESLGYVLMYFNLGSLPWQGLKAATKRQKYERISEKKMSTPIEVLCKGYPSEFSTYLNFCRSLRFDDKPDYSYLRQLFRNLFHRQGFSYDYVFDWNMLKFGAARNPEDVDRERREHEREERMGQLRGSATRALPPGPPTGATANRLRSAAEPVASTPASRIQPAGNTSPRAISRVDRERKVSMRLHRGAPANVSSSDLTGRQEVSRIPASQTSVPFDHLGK
T7 sequence (P00519 whole entry F317L): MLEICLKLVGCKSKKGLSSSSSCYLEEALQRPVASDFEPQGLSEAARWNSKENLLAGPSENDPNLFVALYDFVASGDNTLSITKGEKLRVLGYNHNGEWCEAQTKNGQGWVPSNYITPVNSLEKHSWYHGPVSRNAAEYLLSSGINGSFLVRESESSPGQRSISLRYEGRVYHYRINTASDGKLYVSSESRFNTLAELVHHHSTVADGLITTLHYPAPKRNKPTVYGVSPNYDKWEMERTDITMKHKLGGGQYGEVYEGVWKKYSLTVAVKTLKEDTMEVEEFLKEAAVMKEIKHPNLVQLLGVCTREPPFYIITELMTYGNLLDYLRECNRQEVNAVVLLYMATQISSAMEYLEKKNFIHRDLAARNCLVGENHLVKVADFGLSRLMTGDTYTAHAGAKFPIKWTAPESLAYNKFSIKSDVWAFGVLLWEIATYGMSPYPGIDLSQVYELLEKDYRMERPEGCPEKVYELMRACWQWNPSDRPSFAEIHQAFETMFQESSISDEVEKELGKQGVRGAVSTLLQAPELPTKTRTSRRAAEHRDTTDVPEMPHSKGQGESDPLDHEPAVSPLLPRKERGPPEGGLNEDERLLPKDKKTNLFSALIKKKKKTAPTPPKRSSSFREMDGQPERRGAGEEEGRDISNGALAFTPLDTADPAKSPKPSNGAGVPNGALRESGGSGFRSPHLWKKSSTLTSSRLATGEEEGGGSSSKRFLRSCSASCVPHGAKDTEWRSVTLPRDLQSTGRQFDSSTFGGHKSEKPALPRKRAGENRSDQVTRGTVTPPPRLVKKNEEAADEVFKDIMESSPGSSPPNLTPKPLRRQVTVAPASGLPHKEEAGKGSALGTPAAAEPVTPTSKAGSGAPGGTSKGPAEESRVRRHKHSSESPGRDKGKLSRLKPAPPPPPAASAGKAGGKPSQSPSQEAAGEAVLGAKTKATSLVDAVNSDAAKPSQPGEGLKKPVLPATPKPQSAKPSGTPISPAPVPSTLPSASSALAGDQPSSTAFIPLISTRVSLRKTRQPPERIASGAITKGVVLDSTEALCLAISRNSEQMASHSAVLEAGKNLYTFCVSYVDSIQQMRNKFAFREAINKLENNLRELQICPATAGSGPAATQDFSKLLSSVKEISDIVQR
T4 sequence (P00533 25-1210 T790M): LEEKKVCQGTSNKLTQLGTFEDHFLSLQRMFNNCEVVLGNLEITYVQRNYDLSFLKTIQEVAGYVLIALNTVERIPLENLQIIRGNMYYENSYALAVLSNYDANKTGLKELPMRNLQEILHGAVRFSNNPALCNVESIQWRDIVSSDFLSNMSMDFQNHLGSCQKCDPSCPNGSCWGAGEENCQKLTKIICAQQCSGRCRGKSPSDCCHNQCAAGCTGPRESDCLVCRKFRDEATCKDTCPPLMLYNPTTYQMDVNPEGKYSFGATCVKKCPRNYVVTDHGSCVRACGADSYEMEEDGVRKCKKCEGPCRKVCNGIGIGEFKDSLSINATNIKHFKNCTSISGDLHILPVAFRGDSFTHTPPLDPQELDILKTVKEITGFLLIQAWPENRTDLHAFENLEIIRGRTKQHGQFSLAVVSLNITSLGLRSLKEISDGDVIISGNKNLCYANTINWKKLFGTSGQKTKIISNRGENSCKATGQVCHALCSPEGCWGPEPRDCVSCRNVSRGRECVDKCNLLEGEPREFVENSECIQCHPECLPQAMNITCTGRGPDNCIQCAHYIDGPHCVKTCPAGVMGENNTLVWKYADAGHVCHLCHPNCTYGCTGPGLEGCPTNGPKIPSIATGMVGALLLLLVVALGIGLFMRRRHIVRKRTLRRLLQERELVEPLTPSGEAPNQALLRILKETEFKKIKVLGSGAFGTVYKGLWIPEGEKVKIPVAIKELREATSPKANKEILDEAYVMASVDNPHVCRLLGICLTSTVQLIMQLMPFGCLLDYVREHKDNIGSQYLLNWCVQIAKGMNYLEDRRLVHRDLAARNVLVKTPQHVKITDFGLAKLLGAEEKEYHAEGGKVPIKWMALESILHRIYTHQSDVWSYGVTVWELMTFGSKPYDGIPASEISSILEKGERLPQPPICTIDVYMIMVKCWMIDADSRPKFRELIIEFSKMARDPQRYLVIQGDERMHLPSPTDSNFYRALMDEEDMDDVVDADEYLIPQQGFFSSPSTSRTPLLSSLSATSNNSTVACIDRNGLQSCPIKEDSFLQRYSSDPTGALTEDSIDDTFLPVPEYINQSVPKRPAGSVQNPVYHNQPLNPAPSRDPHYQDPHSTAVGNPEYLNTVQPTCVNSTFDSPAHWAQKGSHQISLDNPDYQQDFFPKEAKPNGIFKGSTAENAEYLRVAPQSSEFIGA
T6 sequence (Q00526 whole entry): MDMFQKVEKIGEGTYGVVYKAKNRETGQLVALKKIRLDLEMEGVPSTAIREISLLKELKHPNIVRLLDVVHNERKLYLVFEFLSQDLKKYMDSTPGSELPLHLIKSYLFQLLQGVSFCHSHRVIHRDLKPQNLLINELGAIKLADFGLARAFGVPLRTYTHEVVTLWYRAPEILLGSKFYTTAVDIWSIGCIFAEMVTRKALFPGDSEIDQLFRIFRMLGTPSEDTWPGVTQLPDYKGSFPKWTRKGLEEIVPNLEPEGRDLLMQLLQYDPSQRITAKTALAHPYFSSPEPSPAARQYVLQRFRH

`Nc1cc(C(F)(F)F)c(-c2cc(N3CCOCC3)nc(N3CCOCC3)n2)cn1` [Buparlisib]: the remaining activity at 1 µM at panel of 442 kinases [1] came to 100%; on panel of 442 kinases [2], 100%; at panel of 442 kinases [3], 100%; on panel of 442 kinases [4], 73%; on panel of 442 kinases [5], 100%; at panel of 442 kinases [6] it was 100%. In addition, the remaining activity at 1 µM on panel of 442 kinases [7] (ABL1(F317L)-nonphosphorylated) and on panel of 442 kinases [7] (ABL1(F317L)-phosphorylated) was 100% throughout. Besides, the remaining activity at 10 µM on panel of 442 kinases [1] (10 µM, read-out: TNK1 (% of control at 10 µM)) is 100%; at panel of 442 kinases [2] (setting [8]) it was 100%; at panel of 442 kinases [3] (10 µM, read-out: ULK1 (% of control at 10 µM)) it was 100%; on panel of 442 kinases [4] (setting [8]), 69%; at panel of 442 kinases [5] (setting [8]), 72%; at panel of 442 kinases [6] (setting [8]), 100%. Moreover, the remaining activity at 10 µM on panel of 442 kinases [7] (ABL1(F317L)-nonphosphorylated) and on panel of 442 kinases [7] (ABL1(F317L)-phosphorylated) was 100% each time.

As to `Cn1c(=O)n(-c2ccc(C(C)(C)C#N)cc2)c2c3cc(-c4cnc5ccccc5c4)ccc3ncc21` [Dactolisib, 2-methyl-2-[4-(3-methyl-2-oxo-8-quinolin-3-yl-2,3-dihydroimidazo[4,5-c]quinolin-1-yl)-phenyl] propionitrile], the remaining activity at 1 µM on panel of 442 kinases [1] worked out at 88%; on panel of 442 kinases [2] it was 68%; at panel of 442 kinases [3], 88%; at panel of 442 kinases [4], 100%; on panel of 442 kinases [5] it was 54%; at panel of 442 kinases [6], 100%. Further, the remaining activity at 1 µM on panel of 442 kinases [7] (ABL1(F317L)-nonphosphorylated) and at panel of 442 kinases [7] (ABL1(F317L)-phosphorylated) was 100% in each case.

As for `FC(F)c1nc2ccccc2n1-c1nc(N2CCOCC2)nc(N2CCOCC2)n1` [ZSTK474, 2-(difluoromethyl)-1-[4,6-di(4-morpholinyl)-1,3,5-triazin-2-yl]-1H-benzimidazole], the remaining activity at 1 µM on panel of 442 kinases [1] came to 86%; at panel of 442 kinases [2] it was 86%; at panel of 442 kinases [3], 69%; on panel of 442 kinases [4] it was 100%; at panel of 442 kinases [5] it was 100%; on panel of 442 kinases [6], 100%. Besides, the remaining activity at 1 µM stood at 85% at panel of 442 kinases [7] (ABL1(F317L)-nonphosphorylated) and 100% at panel of 442 kinases [7] (ABL1(F317L)-phosphorylated).

With `COc1ncc(-c2ccc3nccc(-c4ccnnc4)c3c2)cc1NS(=O)(=O)c1ccc(F)cc1F` [Omipalisib], the remaining activity at 1 µM is 100% at panel of 442 kinases [1]; 100% on panel of 442 kinases [2]; 99% at panel of 442 kinases [3]; 100% on panel of 442 kinases [4]; 100% at panel of 442 kinases [5]; 82% on panel of 442 kinases [6]. The remaining activity at 1 µM at panel of 442 kinases [7] (ABL1(F317L)-nonphosphorylated) stood at 87%; at panel of 442 kinases [7] (ABL1(F317L)-phosphorylated), 100%.
